≈ marks a conversion by molar mass, not a printed value.
Columns and labels:
[1] = test system: M. tb X51 clinical isolate; test: microbe, parasite or virus in culture; type: cell-based, Mycobacterium tuberculosis; conditions: for GROWTH UNITS (Day 8) / SUSCEPTIBILITY MIC99: X51
[2] = test system: M. tuberculosis H37Rv reference strain; test: MGIT 960 mycobacterial growth inhibition, H37Rv; type: cell-based, Mycobacterium tuberculosis; conditions: for GROWTH UNITS (Day 8) / SUSCEPTIBILITY MIC99: H37Rv
[3] = Linezolid 1 μg/ml, growth control GU 400

## CC(=O)NC[C@H]1CN(c2ccc(N3CCOCC3)c(F)c2)C(=O)O1 [Linezolid, (S)-N-[[3-(3-fluoro-4-morpholinylpheny1)-2-oxo-5-oxazolidinyl]methyl] acetamide]
[1]; Mycobacterium tuberculosis, read-out: Minimum Inhibitory Concentration
  MIC: 1 µg/mL (≈ 2.96 µM)
[1]; Linezolid 0.125 μg/ml
  GROWTH UNITS (Day 8): 9164
  SUSCEPTIBILITY MIC99: − (the GU of the drug-containing tube were more than 400, the results were defined as showing resistance)
[1]; Linezolid 0.25 μg/ml
  GROWTH UNITS (Day 8): 6727
  SUSCEPTIBILITY MIC99: − (the GU of the drug-containing tube were more than 400, the results were defined as showing resistance)
[1]; Linezolid 0.5 μg/ml
  GROWTH UNITS (Day 8): 714
  SUSCEPTIBILITY MIC99: − (the GU of the drug-containing tube were more than 400, the results were defined as showing resistance)
[1]; Linezolid 1 μg/ml
  SUSCEPTIBILITY MIC99: + (when the GU of the drug-containing tube were less than 400, the results were considered to show susceptibility)
[1]; [3]
  GROWTH UNITS (Day 8): 0
[2]; Linezolid 0.125 μg/ml
  GROWTH UNITS (Day 8): 12030
  SUSCEPTIBILITY MIC99: − (the GU of the drug-containing tube were more than 400, the results were defined as showing resistance)
[2]; Linezolid 0.25 μg/ml
  GROWTH UNITS (Day 8): 12878
  SUSCEPTIBILITY MIC99: − (the GU of the drug-containing tube were more than 400, the results were defined as showing resistance)
[2]; Linezolid 0.5 μg/ml
  GROWTH UNITS (Day 8): 4674
  SUSCEPTIBILITY MIC99: − (the GU of the drug-containing tube were more than 400, the results were defined as showing resistance)
[2]; Linezolid 1 μg/ml
  SUSCEPTIBILITY MIC99: + (when the GU of the drug-containing tube were less than 400, the results were considered to show susceptibility)
[2]; [3]
  GROWTH UNITS (Day 8): 377
[2]; Mycobacterium tuberculosis, H37Rv Strain, read-out: Minimum Inhibitory Concentration
  MIC: 1 µg/mL (≈ 2.96 µM)
